Data on one compound can be found in patent US9732067B2, “Compounds and methods for activating the apoptotic arm of the unfolded protein response” (University of Kansas, priority 2012, dated 2017).

A word on the IC50: it is the concentration at which inhibition is half-maximal.

The structures appear in SMILES notation. Like-named read-outs stand apart in the source and are kept apart here. Some results are limits rather than exact numbers.

Assay [1] has as its system panel of OSCC and ovarian cancer cell lines. Put plainly: Proliferation, panel of OSCC and ovarian cancer cell lines. The assay is classed as cell-based. To be noted: 24 hours, 0.15-20 μM; read-out: IC50 values in eight of the ten cell lines. Here is the method: (§1) To determine whether ML291 could reduce the proliferation of malignant cells, a panel of OSCC (UMSCC23, A253, HN6, HN12, HN30, H460/T800) and ovarian cancer (RMG-1, TOV112D, A2780 and SKOV3) cell lines, were treated with increasing doses (0.15-20 μM) of ML291 for 24 hours (FIGS. 3A and 3B).

Assay [2] deals with RMG-1 (ovarian). Put plainly: Proliferation, RMG-1. The assay is classed as cell-based. The note with it: 24 hours. Here is the method:
as §1

The test system of assay [3] is HN12. Put plainly: Proliferation, HN12. The note with it: 24 hours, average of three experiments. The assay is classed as cell-based. Here is the method:
as §1

In assay [4] the test system is MEF with wild-type CHOP. The assay is described as follows: Proliferation / cytotoxicity (ATPLite) in MEF with wild-type CHOP. The assay is classed as cell-based, mouse. As for the experimental part:
Several of the analogs derived from these changes were evaluated in secondary assays as they met the preliminary probe criteria for UPR-CHOP and UPR-XBP1 activity. Select compounds were assessed in a dose response manner for the ability to suppress proliferation in both the CHOP wild-type and CHOP knockout murine embryonic fibroblasts (−/− MEF KO CHOP)(Table 2).
It was determined whether ML291 and ML291 congeners would induce cell death (cytotoxicity as measured by ATPLite®, which measures production of ATP from living cells) in cells where these pathways are operant, but not activate them in the absence of the pathways.

Assay [5] relates to CHOP transcripts (apoptotic) compared to spliced XBP1 (adaptive). Put plainly: qRT-PCR transcription profile in OSCC cell lines UMSCC23, A253 and HN12. The assay is classed as cell-based. To be noted: four hours treatment. From the text: While ML291 robustly and selectively activated the apoptotic (CHOP) arm of UPR in the engineered luciferase reporter CHO-K1 cells, while not activating reporter under the control of the adaptive arm (XBP1) promoters, direct confirmation of the selective activation of genes and pathways on the apoptotic UPR arm in a biologically relevant cell or cell line was needed. To determine whether or not ML291 could selectively activate the apoptotic (CHOP) arm of the UPR, relevant oral squamous cell carcinoma cell lines, UMSCC23, A253 and HN12, were treated with ML291 for four hours. The activation/induction of associated genes along the UPR sub-pathways were measured by quantitative real-time reverse-transcription PCR (qRT-PCR) analysis of cDNA pools generated from whole cell lysates. […] Furthermore, the simultaneous induction of the CHOP down stream target GADD34, but not the DNA excision and repair gene ERCC1 indicated ML291 was activating CHOP via the UPR and not DNA damage.

For assay [6], the system named is IRE1/XBP1 (adaptive) UPR sub-pathway. The assay is described as follows: UPR XBP1 assay (CHO-XBP1-luciferase reporter cell line). The assay is classed as cell-based. Here is the method:
A high-throughput screen of the NIH Molecular Libraries Small Molecule Repository (MLSMR) of >350,000 compounds was carried out using complementary cell-based reporter assays using stably transfected CHO-K1 cells that specifically identify activators of the PERK/eIF2α/CHOP (apoptotic), or the IRE1/XBP1 (adaptive) UPR sub-pathways.
The liquid samples were first confirmed at a single-point concentration of 10 μM in the […]. Of the liquid samples, 674 compounds were confirmed to have at least 32% activity at a 10 μM assay concentration. The confirmed compounds were further tested in dose response in the UPR-CHOP primary assay to obtain EC50 values. In addition, confirmed compounds were also dosed out in the CHO-XBP1-luciferase reporter cell line to identify compounds that were selective for the CHOP apoptotic over the adaptive XBP1 pathway.
The high throughput screening effort and subsequent validation produced two chemotypes, which were further explored by SAR analysis for potency, selectivity, the absence of reactive functionality, synthetic accessibility, physiochemical properties, and hit rate in unrelated PUBCHEM assays. SAR testing of re-constituted powders encompassed dose response testing of compounds in two assays: UPR-CHOP and UPR-XBP1 assays.
Background: In a reporter assay the amount or activity of a reporter protein is the signal.

Assay [7] concerns colorectal cell line DLD1(BAX−/−)(BAK−/−). The assay is described as follows: ML291 exposure of DLD1(BAX−/−)(BAK−/−) versus wild-type. The assay is classed as cell-based, human. The note with it: versus wild-type controls.
In assay [8] the test system is A2780 (ovarian). The assay is described as follows: Proliferation, A2780. The assay is classed as cell-based. The note with it: Homo sapiens, 24 hours. Here is the method: as §1
Assay [9] deals with PERK-eIF2α-CHOP (apoptotic) arm of the Unfolded Protein Response pathway. The assay is described as follows: UPR-CHOP primary assay (CHO-CHOP luciferase reporter). The assay is classed as cell-based. As for the experimental part: The purpose of this assay was to detect activators of the PERK-eIF2α-CHOP (apoptotic) arm of the Unfolded Protein Response pathway.
Cells were passaged twice a week. […] Once the cells had reached confluency, old medium was aspirated and the flasks were washed with 20 mL DPBS per T225 flask. Cells were left in DPBS for about 30 seconds. Subsequently, 6.5 mL 0.05% trypsin solution was added into the flask and the flask was rocked gently so that the solution covered the surface. The cells were allowed to detach by incubating at room temperature for about 4 minutes. The flask was washed with […] fresh growth media and the cell suspension was collected in a 50 mL sterile conical tube. The collected cells were centrifuged at 900 rpm for 5 minutes and re-suspended in 1 mL fresh growth media. An additional 19 mL of growth media was added and the tube was mixed gently. The cell suspension was filtered with a cell strainer and the cells were counted.
As above, cells were grown to confluency, washed, and detached with 5 mL trypsin solution for 4 minutes at room temperature. The flask was washed with 25 mL fresh growth media and the cell suspension was collected in a 50 mL sterile conical tube. The cells were centrifuged at 500 rpm for 10 minutes and re-suspended carefully in 1 mL fresh assay medium. An additional 19 mL of assay media was added the cells were mixed gently. The cell suspension was filtered with a cell strainer and the number of cells was counted. Cell density was adjusted to 1.0×10^5 cells/mL in medium.
On day 1, cell suspensions were prepared and 500 cells in 5 μL of assay media were plated in the wells of columns 1-48 of a 1536-well assay plate. The plates were centrifuged at 500 rpm for 1 minute and subsequently incubated at 37° C., 100% relative humidity, 5% CO2 for 16-18 hours.
[…] […] The plates were centrifuged at 1000 rpm for 1 minute and subsequently incubated at 37° C., 100% relative humidity, 5% CO2 for 6 hours.
Following the 6-hour incubation the plate was incubated for 10 minutes at room temperature and 3 μL of STEADY-GLO was added to each well. The plates were centrifuged at 2000 rpm for 2 minutes and subsequently incubated at room temperature for 10 minutes. Luminescence was measured with a luminometer.
The MLPCN library of approximately 330,000 compounds was tested in the UPR-CHOP primary screen utilizing a luciferase-based reporter expressed in a CHO cell line to identify activators of the CHOP apoptotic pathway. […]

`O=C(Nc1ccc(S(=O)(=O)N2CCC(Cl)CC2)cc1)c1ccc([N+](=O)[O-])o1` [ML291, N-(4-((4-chloropiperidin-1-yl)sulfonyl)phenyl)-5-nitrofuran-2-carboxamide]: the 50% inhibitory concentration (IC50) in assay [1] is 1.6 to 18.9 µM; in assay [2], greater than 20 µM; in assay [3] it was 7.17 ± 0.69 µM; in assay [4] (Mus musculus, Table 5, MEF, ATPLite) it was 4.77 ± 1.05 µM; in assay [8] it was 2.16 µM. Further, in assay [4], the “shift of potency in MEF wild-type CHOP versus CHO-K1 cell reporter assays” value is reported as roughly 6 fold. Besides, the EC50 in assay [4] (Mus musculus, Table 2, mean of replicates, EC50 and μM, read-out: Proliferation MEF wt CHOP) is 4.77 ± 1.05 µM; in assay [4] (Mus musculus, read-out: CHOP wild-type EC50 (MEF)) it was 4.77 µM; in [4] (read-out: CHOP wild-type EC50 (MEF)) it was roughly 4.8 µM; in assay [6] (Table 1, mean of replicates, AID602416, read-out: UPR XBP1 Assay Potency EC50), greater than 80 µM; in assay [6] (Table 9, average of four runs, F12 HAMs, 10% hi-FBS, read-out: EC50 UPR XBP1 Assay) it was greater than 80 µM; in assay [6] (read-out: XBP1 EC50), greater than 80 µM. For the same compound, the EC50 was 0.762 µM in assay [9] (CHO-K1, text, read-out: EC50 in the CHO-K1 cell reporter assays (CHOP)); 0.74 µM in assay [9] (Cricetulus griseus, Table 1, mean of replicates, AID602434, read-out: UPR CHOP Assay Potency EC50); 0.74 µM in assay [9] (Cricetulus griseus, read-out: CHOP EC50); 0.78 µM in assay [9] (Table 9, average of four runs, F12 HAMs, 10% hi-FBS, read-out: EC50 UPR CHOP Assay); 0.76 µM in [9] (read-out: EC50 in the CHO-K1 cell reporter assays (CHOP)). Further, the “selectivity of CHOP transcripts compared to spliced XBP1” value in [5] is recorded as 5 fold. Further, the “ability of BAX/BAK-deleted cells to withstand exposure” value in [7] is recorded as “significantly more able to withstand ML291 exposure than wild-type controls”. Besides, the “selectivity (XBP1 over CHOP)” value in assay [9] is listed as greater than 108.1 fold. Also, the “Selectivity (XBP1/CHOP) x-fold” value in [9] (Table 1) is given as greater than 108.1 x-fold.
